Experimental data from the supplement of paper PMC10307832.

Columns and labels:
Assay in all cases: relative viability (nuclei count vs DMSO), 5 days (fraction); higher = more cells survive
Obatoclax + Palbociclib = compound: COC1=CC(c2cc3ccccc3[nH]2)=N/C1=C\c1[nH]c(C)cc1C [Obatoclax] + CC(=O)c1c(C)c2cnc(Nc3ccc(N4CCNCC4)cn3)nc2n(C2CCCC2)c1=O [Palbociclib] (partner 0.5 µM)
How it was run: (§1)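 A single step with final 0.05% Triton X-100, 1% formaldehyde and 1 ug/ml Hoechst fixed the cells and stained nuclei 5 days after treatment. Lung cancer cell lines in 1536-well plates had been treated by pin tool the day after seeding with one drug alone or a fixed anchor-drug dose plus five library-drug doses (not always all listed) in √10 steps, and nuclei were counted on 4× images. Relative viability is the ratio of nuclei in treated wells to nuclei in vehicle wells, taken as the median of duplicate plates.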

Obatoclax + Pemetrexed = compound: COC1=CC(c2cc3ccccc3[nH]2)=N/C1=C\c1[nH]c(C)cc1C [Obatoclax] + Nc1nc2[nH]cc(CCc3ccc(C(=O)N[C@@H](CCC(=O)O)C(=O)O)cc3)c2c(=O)[nH]1 [Pemetrexed] (partner 0.2 µM)
How it was run: as §1

Bortezomib + OSI-027 = compound: CC(C)C[C@H](NC(=O)[C@H](Cc1ccccc1)NC(=O)c1cnccn1)B(O)O [Bortezomib] + COc1cccc2cc(-c3nc([C@H]4CC[C@H](C(=O)O)CC4)n4ncnc(N)c34)[nH]c12 [OSI-027] (partner 0.5 µM)
How it was run: as §1

Bortezomib + Decitabine = compound: CC(C)C[C@H](NC(=O)[C@H](Cc1ccccc1)NC(=O)c1cnccn1)B(O)O [Bortezomib] + Nc1ncn([C@H]2C[C@H](O)[C@@H](CO)O2)c(=O)n1 [Decitabine] (partner 2 µM)
How it was run: as §1

NCI-H650
relative viability (Obatoclax + Palbociclib; first compound 0.01 µM): 0.319
relative viability (Obatoclax + Palbociclib; first compound 0.03162 µM): 0.352
relative viability (Obatoclax + Palbociclib; first compound 0.3162 µM): 0.178
relative viability (Obatoclax + Palbociclib; first compound 1 µM): 0.184
relative viability (Obatoclax + Pemetrexed; first compound 0.01 µM): 1.01
relative viability (Obatoclax + Pemetrexed; first compound 0.03162 µM): 0.86
relative viability (Obatoclax + Pemetrexed; first compound 0.3162 µM): 0.944
relative viability (Obatoclax + Pemetrexed; first compound 1 µM): 0.443
relative viability (Bortezomib + OSI-027; first compound 0.000632 µM): 0.522
relative viability (Bortezomib + OSI-027; first compound 0.002 µM): 0.536
relative viability (Bortezomib + OSI-027; first compound 0.006325 µM): 0.595
relative viability (Bortezomib + OSI-027; first compound 0.02 µM): 0.207
relative viability (Bortezomib + Decitabine; first compound 0.0002 µM): 0.332
relative viability (Bortezomib + Decitabine; first compound 0.000632 µM): 0.347
relative viability (Bortezomib + Decitabine; first compound 0.002 µM): 0.286
relative viability (Bortezomib + Decitabine; first compound 0.006325 µM): 0.216
relative viability (Bortezomib + Decitabine; first compound 0.02 µM): 0.147
